Experimental data published in patent publication US5137811A, “Method for diagnosing periodontal diseases with a substrate specific for aminopeptidase activity of periodontopathic bacteria” (Sunstar Kabushiki Kaisha, priority 1986, dated 1992).
Where a SMILES comes first, the peptide text is derived from it. The star is where a group is joined. βNA = c1ccc2cc(N*)ccc2c1; Cbz = O=C(OCc1ccccc1)*

Legend:
Capnocytophaga sp. = test: Hydrolytic activity of oral anaerobe cell suspension on aminopeptidase substrates (Experiment 1); assay type: cell-based; details: four strains, substrate 0.2 mM, pH 7.0, 37° C., 60 minutes, Table 1
Experimental: (§1) Oral anaerobes, i.e., four strains of Treponema denticola, five strains of B. gingivalis, four strains of Actinobacillus actinomycetemcomitans, four strains of Capnocytophaga sp. and three strains of Fusobacterium nucleatum were tested for hydrolytic activity to the substrate of aminopeptidase enzyme as follows.
(§2) The strains of Treponema were anaerobically cultivated using TYGVS media at 37° C. for 7 days, while other bacterial strains were cultivated using brain heart infusion broth at 37° C. for 48 to 72 hours. Each culture was diluted to obtain a bacterial cell suspension, the absorption at 660 nm of which was 1.0.
(§3) Substrate compounds for aminopeptidase enzyme having various color developing groups derived from β-naphthylamine were dissolved in 0.1M Tris-HCl buffer (pH 7.0) at the concentration of 0.2 mM to obtain substrate solutions.
(§4) To the substrate solution (1.5 ml) was added the above cell suspension (0.3 ml) and reacted at 37° C. for 60 minutes. After completion of the reaction, a coloring reagent [prepared by dissolving diazonium salt of Garnet GBC in 1M acetate buffer (containing 10% Tween 20, pH: 4.2) at the concentration of 0.5 mg/ml] was added and, after 15 minutes, the absorption at 525 nm was determined with a spectrophotometer.
(§5) On the basis of the average amount of released β-naphthylamine in each strain, the hydrolytic activity was expressed as follows: […]

Bacteroides gingivalis = test: as above; assay type: cell-based; details: five strains, substrate 0.2 mM, pH 7.0, 37° C., 60 minutes, Table 1
Experimental: as §1, §2, §3, §4, §5

Treponema denticola [1] = test: as above; assay type: cell-based; details: four strains, substrate 0.2 mM, pH 7.0, 37° C., 60 minutes, Table 1
Experimental: as §1, §2, §3, §4, §5

Fusobacterium nucleatum [2] = test: as above; assay type: cell-based; details: three strains, substrate 0.2 mM, pH 7.0, 37° C., 60 minutes, Table 1
Experimental: as §1, §2, §3, §4, §5

[3] = system: Actinobacillus actinomycetemcomitans; test: as above; assay type: cell-based; details: four strains, substrate 0.2 mM, pH 7.0, 37° C., 60 minutes, Table 1
Experimental: as §1, §2, §3, §4, §5

B. intermedius = test: Hydrolytic activity of cell suspension on aminopeptidase substrates (Experiment 2); assay type: cell-based; details: three strains, Table 2
Experimental: as §2, §3, §4, §5
(§6) According to the same manner as described in Experiment 1, periodontopathic bacteria specific aminopeptidase activity was tested by using four strains of Treponema denticola, five strains of B. gingivalis, three strains of B. intermedius, two strains of B. melaninogenicus, two strains of Actinomyces israelli, four strains of Actinobacillus actinomycetemcomitans and three strains of Fusobacterium nucleatum. Abbreviations used in Table 2 mean the following substrate compounds.

Actinomyces israelli = test: as above; assay type: cell-based; details: two strains, Table 2
Experimental: as §2, §3, §4, §5, §6

B. denticola = test: as above; assay type: cell-based; details: Table 2
Experimental: as §2, §3, §4, §5, §6

B. melaninogenicus = test: as above; assay type: cell-based; details: two strains, Table 2
Experimental: as §2, §3, §4, §5, §6

B. corporis = test: as above; assay type: cell-based; details: Table 2
Experimental: as §2, §3, §4, §5, §6

Treponema denticola [4] = test: as above; assay type: cell-based; details: four strains, Table 2
Experimental: as §2, §3, §4, §5, §6

Fusobacterium nucleatum [5] = test: as above; assay type: cell-based; details: three strains, Table 2
Experimental: as §2, §3, §4, §5, §6

B. gingivalis = test: as above; assay type: cell-based; details: five strains, Table 2
Experimental: as §2, §3, §4, §5, §6

[6] = system: Actinobacillus actinomycetemcomitans; test: as above; assay type: cell-based; details: four strains, Table 2
Experimental: as §2, §3, §4, §5, §6

[7] = system: periodontopathic bacteria specific aminopeptidase activity; test: Hydrolytic activity of gingival crevicular fluid specimens, visually evaluated (Experiment 5); assay type: biochemical; parameters: key: -: orange; +: dark orange; ++: brown; +++: dark brown
Experimental: as §3, §4
Specimens of gingival crevicular fluid were collected with paper points from five subjects who were considered to be healthy from their clinical state, six subjects with gingivitis and six subjects with periodontitis. Each specimen was dispersed in Ringer's solution (1.5 ml), and the relative amount of spirochete to total bacteria: [formula] was determined with a phase contrast microscope. Further, the Ringer's solution (0.3 ml) was tested for hydrolytic activity using the substrate solution prepared in the same manner as described in Experiment 1. As substrates, there were used compounds of the formula [1], i.e., N-benzoylvalyl-glycyl-arginine-β-naphthylamide (BzVGR) and N-carbobenzoxy-valyl-glycyl-arginine-β-naphthylamide (CxVGR) were used.
In table 4, hydrolytic activity was visually evaluated and expressed as follows: […]
According to the same manner as described in Experiment 4, hydrolytic activity was tested by using the compounds of the formula [2], i.e., lysyl-proline-β-naphthylamide (KP) and N-carbobenzoxy-prolyl-alanyl-glycylproline-β-naphthylamide (CxPAGP) as the substrates.

Structure (SMILES): NCC(=O)Nc1ccc2ccccc2c1 [G, glycine-β-naphthylamide, reference compound]
- hydrolytic activity (average amount of released β-naphthylamine) (Capnocytophaga sp.): + (10 ≤release amount<20 nmol/ml)
- hydrolytic activity (average amount of released β-naphthylamine) (Bacteroides gingivalis): - (release amount<5 nmol/ml)
- hydrolytic activity (average amount of released β-naphthylamine) (Treponema denticola [1]): - (release amount<5 nmol/ml)
- hydrolytic activity (average amount of released β-naphthylamine) (Fusobacterium nucleatum [2]): - (release amount<5 nmol/ml)
- hydrolytic activity (average amount of released β-naphthylamine) [3]: - (release amount<5 nmol/ml)
- hydrolytic activity (average amount of released β-naphthylamine) (B. intermedius): - (release amount<5 nmol/ml)
- hydrolytic activity (average amount of released β-naphthylamine) (Actinomyces israelli): - (release amount<5 nmol/ml)
- hydrolytic activity (average amount of released β-naphthylamine) (B. denticola): - (release amount<5 nmol/ml)
- hydrolytic activity (average amount of released β-naphthylamine) (B. melaninogenicus): - (release amount<5 nmol/ml)
- hydrolytic activity (average amount of released β-naphthylamine) (B. corporis): - (release amount<5 nmol/ml)
- hydrolytic activity (average amount of released β-naphthylamine) (Treponema denticola [4]): - (release amount<5 nmol/ml)
- hydrolytic activity (average amount of released β-naphthylamine) (Fusobacterium nucleatum [5]): - (release amount<5 nmol/ml)
- hydrolytic activity (average amount of released β-naphthylamine) (B. gingivalis): - (release amount<5 nmol/ml)
- hydrolytic activity (average amount of released β-naphthylamine) [6]: - (release amount<5 nmol/ml)

Structure (SMILES): C[C@H](N)C(=O)Nc1ccc2ccccc2c1 [A, alanine-β-naphthylamide, reference compound]
- hydrolytic activity (average amount of released β-naphthylamine) (Capnocytophaga sp.): +++ (release amount≥40 nmol/ml)
- hydrolytic activity (average amount of released β-naphthylamine) (Bacteroides gingivalis): - (release amount<5 nmol/ml)
- hydrolytic activity (average amount of released β-naphthylamine) (Treponema denticola [1]): - (release amount<5 nmol/ml)
- hydrolytic activity (average amount of released β-naphthylamine) (Fusobacterium nucleatum [2]): - (release amount<5 nmol/ml)
- hydrolytic activity (average amount of released β-naphthylamine) [3]: - (release amount<5 nmol/ml)
- hydrolytic activity (average amount of released β-naphthylamine) (B. intermedius): - (release amount<5 nmol/ml)
- hydrolytic activity (average amount of released β-naphthylamine) (Actinomyces israelli): - (release amount<5 nmol/ml)
- hydrolytic activity (average amount of released β-naphthylamine) (B. denticola): - (release amount<5 nmol/ml)
- hydrolytic activity (average amount of released β-naphthylamine) (B. melaninogenicus): - (release amount<5 nmol/ml)
- hydrolytic activity (average amount of released β-naphthylamine) (B. corporis): - (release amount<5 nmol/ml)
- hydrolytic activity (average amount of released β-naphthylamine) (Treponema denticola [4]): - (release amount<5 nmol/ml)
- hydrolytic activity (average amount of released β-naphthylamine) (Fusobacterium nucleatum [5]): - (release amount<5 nmol/ml)
- hydrolytic activity (average amount of released β-naphthylamine) (B. gingivalis): - (release amount<5 nmol/ml)
- hydrolytic activity (average amount of released β-naphthylamine) [6]: - (release amount<5 nmol/ml)

Structure (SMILES): C[C@H](NC(=O)[C@@H]1CCCN1C(=O)OCc1ccccc1)C(=O)NCC(=O)N1CCC[C@H]1C(=O)Nc1ccc2ccccc2c1 [CxPAGP, N-carbobenzoxy-prolyl-alanyl-glycyl-proline-β-naphthylamide] (Cbz-PAGP-βNA)
- hydrolytic activity (average amount of released β-naphthylamine) (B. intermedius): +++ (release amount≥40 nmol/ml)
- hydrolytic activity (average amount of released β-naphthylamine) (Actinomyces israelli): - (release amount<5 nmol/ml)
- hydrolytic activity (average amount of released β-naphthylamine) (B. denticola): +++ (release amount≥40 nmol/ml)
- hydrolytic activity (average amount of released β-naphthylamine) (B. melaninogenicus): +++ (release amount≥40 nmol/ml)
- hydrolytic activity (average amount of released β-naphthylamine) (B. corporis): ++ (20 ≤release amount<40 nmol/ml)
- hydrolytic activity (average amount of released β-naphthylamine) (Treponema denticola [4]): +++ (release amount≥40 nmol/ml)
- hydrolytic activity (average amount of released β-naphthylamine) (Fusobacterium nucleatum [5]): - (release amount<5 nmol/ml)
- hydrolytic activity (average amount of released β-naphthylamine) (B. gingivalis): + (10 ≤release amount<20 nmol/ml)
- hydrolytic activity (average amount of released β-naphthylamine) [6]: - (release amount<5 nmol/ml)
- hydrolytic activity, visually evaluated ([7]; Gingivitis subject 1 (spirochete 7.3 %)): +
- hydrolytic activity, visually evaluated ([7]; Gingivitis subject 2 (spirochete 16.7 %)): +
- hydrolytic activity, visually evaluated ([7]; Gingivitis subject 3 (spirochete 20.5 %)): ++
- hydrolytic activity, visually evaluated ([7]; Gingivitis subject 4 (spirochete 6.8 %)): -
- hydrolytic activity, visually evaluated ([7]; Gingivitis subject 5 (spirochete 7.3 %)): -
- hydrolytic activity, visually evaluated ([7]; Gingivitis subject 6 (spirochete 14.4 %)): +
- hydrolytic activity, visually evaluated ([7]; Healthy subject 1 (spirochete 0.1 %)): -
- hydrolytic activity, visually evaluated ([7]; Healthy subject 2 (spirochete 2.5 %)): +
- hydrolytic activity, visually evaluated ([7]; Healthy subject 3 (spirochete 1.1 %)): -
- hydrolytic activity, visually evaluated ([7]; Healthy subject 4 (spirochete 0.6 %)): -
- hydrolytic activity, visually evaluated ([7]; Healthy subject 5 (spirochete 1.3 %)): -
- hydrolytic activity, visually evaluated ([7]; Periodontitis subject 1 (spirochete 45.2 %)): +++
- hydrolytic activity, visually evaluated ([7]; Periodontitis subject 2 (spirochete 30.3 %)): +++
- hydrolytic activity, visually evaluated ([7]; Periodontitis subject 3 (spirochete 34.6 %)): +++
- hydrolytic activity, visually evaluated ([7]; Periodontitis subject 4 (spirochete 21.2 %)): +++
- hydrolytic activity, visually evaluated ([7]; Periodontitis subject 5 (spirochete 40.3 %)): +++
- hydrolytic activity, visually evaluated ([7]; Periodontitis subject 6 (spirochete 35.1 %)): +++

Structure (SMILES): N=C(N)NCCC[C@H](N)C(=O)Nc1ccc2ccccc2c1 [R, arginine-β-naphthylamide, reference compound]
- hydrolytic activity (average amount of released β-naphthylamine) (Capnocytophaga sp.): +++ (release amount≥40 nmol/ml)
- hydrolytic activity (average amount of released β-naphthylamine) (Bacteroides gingivalis): - (release amount<5 nmol/ml)
- hydrolytic activity (average amount of released β-naphthylamine) (Treponema denticola [1]): - (release amount<5 nmol/ml)
- hydrolytic activity (average amount of released β-naphthylamine) (Fusobacterium nucleatum [2]): - (release amount<5 nmol/ml)
- hydrolytic activity (average amount of released β-naphthylamine) [3]: - (release amount<5 nmol/ml)
- hydrolytic activity (average amount of released β-naphthylamine) (B. intermedius): - (release amount<5 nmol/ml)
- hydrolytic activity (average amount of released β-naphthylamine) (Actinomyces israelli): - (release amount<5 nmol/ml)
- hydrolytic activity (average amount of released β-naphthylamine) (B. denticola): - (release amount<5 nmol/ml)
- hydrolytic activity (average amount of released β-naphthylamine) (B. melaninogenicus): - (release amount<5 nmol/ml)
- hydrolytic activity (average amount of released β-naphthylamine) (B. corporis): - (release amount<5 nmol/ml)
- hydrolytic activity (average amount of released β-naphthylamine) (Treponema denticola [4]): - (release amount<5 nmol/ml)
- hydrolytic activity (average amount of released β-naphthylamine) (Fusobacterium nucleatum [5]): - (release amount<5 nmol/ml)
- hydrolytic activity (average amount of released β-naphthylamine) (B. gingivalis): - (release amount<5 nmol/ml)
- hydrolytic activity (average amount of released β-naphthylamine) [6]: - (release amount<5 nmol/ml)

Structure (SMILES): NCCCC[C@H](N)C(=O)Nc1ccc2ccccc2c1 [K, lysine-β-naphthylamide, reference compound]
- hydrolytic activity (average amount of released β-naphthylamine) (Capnocytophaga sp.): +++ (release amount≥40 nmol/ml)
- hydrolytic activity (average amount of released β-naphthylamine) (Bacteroides gingivalis): - (release amount<5 nmol/ml)
- hydrolytic activity (average amount of released β-naphthylamine) (Treponema denticola [1]): - (release amount<5 nmol/ml)
- hydrolytic activity (average amount of released β-naphthylamine) (Fusobacterium nucleatum [2]): - (release amount<5 nmol/ml)
- hydrolytic activity (average amount of released β-naphthylamine) [3]: - (release amount<5 nmol/ml)
- hydrolytic activity (average amount of released β-naphthylamine) (B. intermedius): - (release amount<5 nmol/ml)
- hydrolytic activity (average amount of released β-naphthylamine) (Actinomyces israelli): - (release amount<5 nmol/ml)
- hydrolytic activity (average amount of released β-naphthylamine) (B. denticola): - (release amount<5 nmol/ml)
- hydrolytic activity (average amount of released β-naphthylamine) (B. melaninogenicus): - (release amount<5 nmol/ml)
- hydrolytic activity (average amount of released β-naphthylamine) (B. corporis): - (release amount<5 nmol/ml)
- hydrolytic activity (average amount of released β-naphthylamine) (Treponema denticola [4]): - (release amount<5 nmol/ml)
- hydrolytic activity (average amount of released β-naphthylamine) (Fusobacterium nucleatum [5]): - (release amount<5 nmol/ml)
- hydrolytic activity (average amount of released β-naphthylamine) (B. gingivalis): - (release amount<5 nmol/ml)
- hydrolytic activity (average amount of released β-naphthylamine) [6]: - (release amount<5 nmol/ml)
